Test results published in the NIST ThermoML archive (doi:10.1016/j.fluid.2009.02.001).

What was measured:
[1] = Molar enthalpy of transition or fusion; conditions: Crystal; DSC
[2] = for vapor or sublimation pressure: Liquid

CC(=O)Nc1ccc(O)cc1 [N-acetyl-p-aminophenol]
Conditions	Molar enthalpy of transition or fusion [kcal/mol]
[1]	6.45

[2]
Conditions	Normal melting temperature [°C]	vapor or sublimation pressure [kPa]
477.3 K, Isothermal thermogravimetry	–	0.194
477.3 K, Nonisothermal thermogravimetry	–	0.197
478.8 K, Isothermal thermogravimetry	–	0.1996
479.3 K, Isothermal thermogravimetry	–	0.206
479.3 K, Nonisothermal thermogravimetry	–	0.204
480 K, Isothermal thermogravimetry	–	0.225
480.8 K, Isothermal thermogravimetry	–	0.2307
481.4 K, Isothermal thermogravimetry	–	0.249
481.4 K, Nonisothermal thermogravimetry	–	0.25
482 K, Isothermal thermogravimetry	–	0.2601
482.9 K, Isothermal thermogravimetry	–	0.2539
483.2 K, Isothermal thermogravimetry	–	0.276
483.2 K, Nonisothermal thermogravimetry	–	0.259
483.8 K, Isothermal thermogravimetry	–	0.2861
484.7 K, Isothermal thermogravimetry	–	0.2838
485.2 K, Isothermal thermogravimetry	–	0.303
485.9 K, Isothermal thermogravimetry	–	0.3199
486.7 K, Isothermal thermogravimetry	–	0.3264
487.3 K, Isothermal thermogravimetry	–	0.336
487.3 K, Nonisothermal thermogravimetry	–	0.341
487.9 K, Isothermal thermogravimetry	–	0.3679
488.8 K, Isothermal thermogravimetry	–	0.3624
489.3 K, Isothermal thermogravimetry	–	0.365
489.3 K, Nonisothermal thermogravimetry	–	0.315
490 K, Isothermal thermogravimetry	–	0.3891
490.8 K, Isothermal thermogravimetry	–	0.3978
491.2 K, Isothermal thermogravimetry	–	0.409
491.2 K, Nonisothermal thermogravimetry	–	0.468
491.8 K, Isothermal thermogravimetry	–	0.437
492.7 K, Isothermal thermogravimetry	–	0.449
493.3 K, Isothermal thermogravimetry	–	0.44
493.3 K, Nonisothermal thermogravimetry	–	0.447
493.9 K, Isothermal thermogravimetry	–	0.482
494.8 K, Isothermal thermogravimetry	–	0.4882
495.4 K, Isothermal thermogravimetry	–	0.492
495.4 K, Nonisothermal thermogravimetry	–	0.504
496 K, Isothermal thermogravimetry	–	0.524
496.9 K, Isothermal thermogravimetry	–	0.5169
497.2 K, Isothermal thermogravimetry	–	0.554
497.9 K, Isothermal thermogravimetry	–	0.5547
498.7 K, Isothermal thermogravimetry	–	0.5818
499.3 K, Isothermal thermogravimetry	–	0.61
499.3 K, Nonisothermal thermogravimetry	–	0.669
499.9 K, Isothermal thermogravimetry	–	0.6246
500.8 K, Isothermal thermogravimetry	–	0.6364
501.4 K, Isothermal thermogravimetry	–	0.677
502 K, Isothermal thermogravimetry	–	0.6832
502.9 K, Isothermal thermogravimetry	–	0.7129
503.2 K, Isothermal thermogravimetry	–	0.733
503.2 K, Nonisothermal thermogravimetry	–	0.729
503.4 K, Nonisothermal thermogravimetry	–	0.838
503.8 K, Isothermal thermogravimetry	–	0.765
504.7 K, Isothermal thermogravimetry	–	0.7889
505.2 K, Isothermal thermogravimetry	–	0.815
505.2 K, Nonisothermal thermogravimetry	–	0.861
505.8 K, Isothermal thermogravimetry	–	0.8468
506.7 K, Isothermal thermogravimetry	–	0.8517
507.2 K, Isothermal thermogravimetry	–	0.888
507.2 K, Nonisothermal thermogravimetry	–	0.945
507.9 K, Isothermal thermogravimetry	–	0.9142
508.7 K, Isothermal thermogravimetry	–	0.933
509.3 K, Nonisothermal thermogravimetry	–	1.037
511.3 K, Nonisothermal thermogravimetry	–	1.207
513.4 K, Nonisothermal thermogravimetry	–	1.178
515.4 K, Nonisothermal thermogravimetry	–	1.41
517.2 K, Nonisothermal thermogravimetry	–	1.544
519.2 K, Nonisothermal thermogravimetry	–	1.696
521.3 K, Nonisothermal thermogravimetry	–	1.757
523.2 K, Nonisothermal thermogravimetry	–	2.012
525.3 K, Nonisothermal thermogravimetry	–	2.197
527.3 K, Nonisothermal thermogravimetry	–	2.32
529.2 K, Nonisothermal thermogravimetry	–	2.607
531.2 K, Nonisothermal thermogravimetry	–	2.823
533.3 K, Nonisothermal thermogravimetry	–	3.064
535.4 K, Nonisothermal thermogravimetry	–	3.295
537.2 K, Nonisothermal thermogravimetry	–	3.552
539.3 K, Nonisothermal thermogravimetry	–	4.01
541.3 K, Nonisothermal thermogravimetry	–	4.144
543.3 K, Nonisothermal thermogravimetry	–	4.653
545.4 K, Nonisothermal thermogravimetry	–	5.059
547.4 K, Nonisothermal thermogravimetry	–	5.373
549.2 K, Nonisothermal thermogravimetry	–	5.759
551.2 K, Nonisothermal thermogravimetry	–	6.208
553.2 K, Nonisothermal thermogravimetry	–	6.719
557.3 K, Nonisothermal thermogravimetry	–	7.824
559.4 K, Nonisothermal thermogravimetry	–	8.304
561.2 K, Nonisothermal thermogravimetry	–	8.944
Crystal, DTA	172.5	–
